Measured values taken from patent publication US10105351B2, “Neurofibromatoses therapeutic agents and screening for same” (University of Central Florida Research Foundation, Inc., priority 2012, dated 2018).
Structures can show the parent of a compound that is named as a salt. Where two headings read alike, the source gives them in different places.

Assays:
[1] = system: normal nf2^flox2/flox2 Schwann cells; assay: Selectivity assay: cell viability of normal Schwann cells; details: one assay with mouse nf2^flox2/flox2 Schwann cells at P2
Protocol: (§3) The compounds were tested at 10 uM in 8 replicates in a 384-well format using the live cell protease assay (CellTiter-Fluor) and the orthogonal ATP-based assay (CellTiter-GLO) (both from Promega). We tested the compounds on two Merlin-null Schwann cell lines, L1, (used in the LOPAC screen) at passages ranging from 13-23 and an independently-derived line, L2, tested at passage 20 and 21.

[2] = system: merlin-null Schwann cells; assay: Propidium iodide and BrdU/7AAD flow cytometer cell cycle assays; assay type: cell-based, mouse
Protocol: FIGS. 9A-D. Phenotypic Proliferation Assays. (A) Merlin-null Schwann cells (384-well format) were treated with the indicated compounds and concentrations for 24 hours and labeled with EdU during the last 9 hours. Incorporation of EdU into S-phase cells was read on a Biotek H1 Hybrid reader. (B) The plate was also imaged with a Trophos high resolution fluorescence Plate Runner. (C). Merlin-null Schwann cells were grown in 6-well format and were treated with 5 uM compounds for 22 hours, then labeled with PI. The cell population profile is shown and was analyzed using the ModFit program. (D). Merlin-null Schwann cells were grown as in C but were labeled with BrdU during the final 3 hours of treatment then stained with 7AAD. The distribution of BrdU- and 7AAD-labelled cells is shown and was analyzed with Diva program. The BD Cantos II flow cytometer was used above.
In yet another aspect, identification of compounds that affect proliferation of Merlin-null mouse Schwann cells can be performed by conducting a Click-iT EdU Microplate Assay (Life Technologies) in the 384 well-plate format and then follow-up with BrdU/7AAD and propidium iodide flow cytometer assays. […] Fluorescence emission is measured on a Hybrid HT plate reader (FIG. 9A) as well as on a Trophos Plate RUNNER HD that captures images of the wells (FIG. 9B). […]

[3] = system: merlin-null Schwann cells; assay: Apo-ONE Homogeneous caspase-3/7 assay; assay type: cell-based, mouse; details: 8 hours, 384-well format
Protocol: (§1) FIGS. 8A-C. Phenotypic Apoptosis Assays. (A). Merlin-null Schwann cells in a 384-well format were incubated with the indicated compounds for 8 hours. Caspase-3/7 activity was measure with Apo-ONE Homogeneous Assay (Promega). n=32 wells. (B). Merlin-null Schwann cells in a 6-well format were treated with compounds (10 uM) for 24 hours. Membrane asymmetry was detected with Violet Ratiometric assay and read on a BD Cantos II flow cytometer. (C). Population distribution for B is shown.
(§2) In yet another aspect, compounds may be identified which induce programmed cell death or inhibit proliferation of Merlin-null Schwann cells. Merlin-pathway assays may be conducted to identify the subset of compounds that modulate the activity of known merlin pathways. The effector caspase cascade is activated in many extrinsic and intrinsic cell death pathways^29. […] The effect of compounds on caspase-3 activity can be measured by first lysing the cells and centrifuging to pellet the debris. […] Enzyme activity may be measured on an Envision plate reader at Ex400 nm/Em505 nm. The enzyme activity may be calculated from a standard curve generated using recombinant caspase-3 enzyme (R&D System, Inc.) and expressed as fold-increase in activity. […] Transfer of phosphatidylserine and phosphatidylethanolamine from the inner to the outer leaflet of the plasma membrane changes the membrane potential that is detected by F2N12S. […]

[4] = system: merlin-null Schwann cells; assay: Orthogonal ATP-based luminescence cell viability assay (CellTiter-GLO); details: for Orthogonal Assay Average of two, cell viability: average of two assays with one cell line at P18-23
[5] = system: merlin-null Schwann cells; assay: Primary assay: live cell protease assay (CellTiter-Fluor), cell viability; details: for Primary Assay (m +/− sd), cell viability: mean and SD of four assays
Protocol: (§4) Cell viability was measured with the CellTiter-Fluor Live Protease Assay (Promega). […] One way ANOVA Kurskal-Wallis test was used with a Dunn's Multiple Comparison post-test.
as §3

[6] = system: merlin-null Schwann cells; details: 10 µM
Protocol: as §4, §3

[7] = system: merlin-null Schwann cells; details: 10 µM; remark: listed apart in the source
[8] = system: normal nf2^flox2/flox2 Schwann cells; details: 10 µM
Protocol: as §3

[9] = system: merlin-null Schwann cells; assay: MultiTox-Fluor Multiplex Cytotoxicity Assay (assay validation and LOPAC pilot screen); assay type: cell-based, mouse; details: 50 μM; 384-well plate, 5,000 cells/well
Protocol: Merlin-null Schwann cells were seeded at 5,000 cells/well in an uncoated Corning Cell-Bind 384-well plate. A) Result of a rapamycin dose response study conducted with the MultiTox-Fluor assay is shown. B) Cell viability in the presence of 0.5% DMSO or 0.5% DMSO plus 50 μM rapamycin (RM) added 4 hours after plating was measured 24 hours later as described in the FIG. 3 legend.
A pilot screen of Sigma's LOPAC was conducted to test the reliability of our system. The 1280 compounds were tested at 10 μM in 0.5% DMSO in single wells. They were added 4 hours after cell plating and the MultiTox-Fluor assay was run 24 hours later. The positive control included cells treated with 50 μM rapamycin in 0.5% DMSO and the negative control included cells treated with 0.5% DMSO. The signals for live and dead protease activities were collected sequentially. […] The screen yielded 40 hits using a cut-off value equal to 80% of the live:dead signal of the rapamycin positive control which was equivalent to 50% of live cell signal (FIG. 5). The hits represent a spectrum of compounds that fall into 5 basic categories; 1) inhibitors of signaling kinases, 2) cell-cycle inhibitors, 3) pro-apoptotic agents, 4) receptor inhibitors and 5) modulators of cell metabolism.

[10] = system: merlin-null Schwann cells; assay: Violet Ratiometric Membrane Asymmetry Probe/Dead Cell Apoptosis assay (flow cytometer); assay type: cell-based, mouse; details: 10 uM, 24 hours, 6-well format
Protocol: as §1, §2

[11] = 10 uM, 8 replicates, 384 well plate, two independently derived merlin-null Schwann cell lines at P13-23

N#C/C(=C\c1ccc(-c2cc(Cl)ccc2Cl)o1)C(=O)Nc1cccc2ncccc12 [AGK2, 2-Cyano-3-[5-(2,5-dichlorophenyl)-2-furanyl]-N-5-quinolinyl-2-propenamide]
Selectivity Assay, cell viability ([1]; 10 uM): 42 % of DMSO Control
anti-proliferative effects on the cells ([2]; 24 hours of drug treatment and S-phase labelling for the final 3 hours): did not reveal clear anti-proliferative effects
mechanism of apoptotic death with respect to caspase-3/7 activity [3]: caspase3/7-independent
Orthogonal Assay Average of two, cell viability ([4]; 10 uM): 78.6 % of DMSO Control
activity on viability in orthogonal screen and dose response ([4]; Merlin-null Schwann cells L1P12): confirmed
cell viability ([5]; 10 uM, 24 hours, lines L1, L2 at P12-18, CellTiter-Fluor): < 50 % of DMSO control
Primary Assay (m +/− sd), cell viability [5, 11]: 65 +/− 14 % of DMSO Control

CC(C)C(=O)Nc1ncc(-c2cc(C(F)F)nn2-c2c(Cl)cccc2Cl)s1 [BMS-5]
Primary Assay (m +/− sd), cell viability [6]: 65 +/− 14 % of DMSO Control
Orthogonal Assay Average of two, cell viability [7]: 63.2 % of DMSO Control
PI labeling and BrdU cell cycle profiles ([2]; 5 uM, 22 hours): accumulate in G2/M
mechanism of apoptotic death with respect to caspase-3/7 activity [3]: caspase3/7-independent

Ic1ccccc1CNC1C2CCN(CC2)C1C(c1ccccc1)c1ccccc1 [L-703,606 oxalate salt hydrate, cis-2-(Diphenylmethyl)-N-[(2-iodophenyl)methyl]-1-azabicyclo[2.2.2]octan-3-amine]
Selectivity Assay, cell viability [8]: 33 % of DMSO Control
Orthogonal Assay Average of two, cell viability ([4]; 10 uM): 40.6 % of DMSO Control
Primary Assay (m +/− sd), cell viability [5, 11]: 62 +/− 11 % of DMSO Control

CO[C@H]1C[C@@H]2CC[C@@H](C)[C@@](O)(O2)C(=O)C(=O)N2CCCC[C@H]2C(=O)O[C@H]([C@H](C)C[C@@H]2CC[C@@H](O)[C@H](OC)C2)CC(=O)[C@H](C)/C=C(\C)[C@@H](O)[C@@H](OC)C(=O)[C@H](C)C[C@H](C)/C=C/C=C/C=C/1C [Rapamycin, rapamycin]
Selectivity Assay, cell viability ([1]; 50 uM): 30 % of DMSO Control
Viability of cells (live cell protease) [9]: 20+/−1.4 % of the DMSO control
Orthogonal Assay Average of two, cell viability ([4]; 50 uM): 10.6 % of DMSO Control
Primary Assay (m +/− sd), cell viability ([5]; 50 uM, two merlin-null Schwann cell lines at P13-23): 18 +/− 3 % of DMSO Control

chelerythrine chloride
apoptotic death (Q1+Q3) of cells [10]: 93%
